Here are results for eight molecules from patent US6906205B2, “Spiro and dispiro 1,2,4-trioxolane antimalarials” (Medicines for Malaria Venture MMV, priority 2002, dated 2005).

In brackets after ≈: the same amount, converted by molar mass.

Assay [1] concerns ANKA strain of P. berghei. The assay can be described thus: single dose STI in vivo screen in infected mice. Also on record: species or system Plasmodium berghei. The conditions noted are these: for Activity (%) po / Activity (%) sc / Activity (%) SSVpo: percent reduction in parasitemia day 3 post-infection, mice; for Activity (%) po / Survival (days) po: single 10 mg/kg po in 3% ethanol and 7% Tween 80; for Activity (%) sc / Survival (days) sc: single 10 mg/kg sc in 3% ethanol and 7% Tween 80; for Activity (%) SSVpo: single po dose in standard suspending vehicle (SSV); for Survival (days) po / Survival (days) sc / Survival (days) SSVpo: untreated control 5.6 ± 0.3; for Survival (days) SSVpo: single po dose in SSV. A digest of the protocol:
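Groups of 3-5 Moro SPF or NMRI mice infected with the ANKA strain of P. berghei received a single dose of trioxolane on day one post-infection. The compound was given in 3% ethanol and 7% Tween 80 or in SSV (0.5% w/v CMC, 0.5% v/v benzyl alcohol, 0.4% v/v Tween 80, 0.9% w/v sodium chloride in water). Antimalarial activity was scored as percent reduction in parasitemia on day three and as survival time versus untreated controls. Survival to day 30 counted as cure.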

Assay [2] concerns Schistosoma mansoni 21-day-old schistosomules. The assay can be described thus: effect on 21-day-old schistosomules in mice. The class given is in vivo. The conditions noted are these: single 200 mg/kg per os, female mice. How it is done: All groups were killed 4 weeks after treatment and the liver and intestine were removed and separated. The liver and intestine were compressed and alive male and female worms could be seen and counted. The effect of the compounds was evaluated by mean total and female worm burden.

For assay [3], the system named is Schistosoma mansoni adult schistosomes (49-day-old). Nature of the assay: effect on adult schistosomes (49-day-old) in mice. The format is in vivo. The conditions noted are these: for % reduction of adult worms growth at day 49 after per os application of 400 mg/kg, TWR (%) / adult worms at day 49, per os 400 mg/kg, DEAD WORM (%): single 400 mg/kg per os. How it is done:
Mice were infected with 100 Schistosoma mansoni cercariae […]. Each group was treated per os with OZ compounds at single doses of 200, 400, and 600 mg/kg. […] All groups were killed 4 weeks after treatment and the liver and intestine were removed and separated. The liver and intestine were compressed and alive male and female worms could be seen and counted.

The test system of assay [4] is ANKA strain of Plasmodium berghei. Nature of the assay: single dose ED50/ED90/ED99 determinations in infected mice. Particulars: single dose po in SSV, mice, percent reduction in parasitemia on day three post-infection. The class given is in vivo. As for the experimental part:
In the single dose ED50/ED90/ED99 determinations, Moro SPF or NMRI mice (group of three) infected with the ANKA strain of Plasmodium berghei were treated on day one post-infection. […] The SSV consists of 0.5% w/v CMC, 0.5% v/v benzyl alcohol, 0.4% v/v Tween 80, and 0.9% w/v sodium chloride in water. Antimalarial activity was measured by percent reduction in parasitemia on day three post-infection. The ED50/ED90 values were calculated by nonlinear fitting.

Assay [5] relates to P. falciparum K1 strain (Thailand resistant to chloroquine). The assay can be described thus: semiautomated microdilution assay, [3H]-hypoxanthine incorporation, K1 strain. The format is cell-based, Plasmodium falciparum. The conditions noted are these: K1 strain, 72 h incubation. Put shortly: (§1)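 Compounds were tested against intraerythrocytic parasites taken from asynchronous stock cultures, using semiautomated microdilution. IC50 values were estimated by logit regression analysis.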

The test system of assay [6] is P. falciparum NF54 strain (sensitive to standard antimalarials). Nature of the assay: semiautomated microdilution assay, [3H]-hypoxanthine incorporation, NF54 strain. The class given is cell-based, Plasmodium falciparum. Particulars: NF54 strain, 72 h incubation. Put shortly: as §1
For orientation: In broth dilution the organism is exposed to a series of concentrations in liquid medium.

Consider `CC1(C)COC2(CCC3(CC2)OOC2(O3)C3CC4CC(C3)CC2C4)OC1` (centres unmarked) [OZ11], for which, in assay [1], the “Activity (%) po” value was 99.99%, the “Activity (%) sc” value is 100%, the “Activity (%) SSVpo” value worked out at 98% and the “Survival (days) po” value was found to be 11.4 days. In assay [1], the “Survival (days) sc” value worked out at 18 days and the “Survival (days) SSVpo” value amounted to 7.4 days. For the same molecule, in assay [2], the “% reduction of schistosomule growth at day 21 after per os application of 200 mg/kg, FWR (%)” value was determined as 84% and the “% reduction of schistosomule growth at day 21 after per os application of 200 mg/kg, TWR (%)” value is given as 85%. Besides, in assay [3], the “% reduction of adult worms growth at day 49 after per os application of 400 mg/kg, TWR (%)” value was found to be 16% and the “adult worms at day 49, per os 400 mg/kg, DEAD WORM (%)” value came to 4%. In assay [4], the ED90 is listed as 6.2 mg/kg and the ED99 is on record as 8.2 mg/kg.
In the case of `O=C(O)CC1CCC2(CC1)OOC1(O2)C2CC3CC(C2)CC1C3` (centres unmarked) [OZ78], the “IC50 (ng/ml) K1” value in assay [5] turned out to be 24 ng/mL (≈ 74.4 nM). For the same molecule, the “IC50 (ng/ml) NF54” value in assay [6] is 42 ng/mL (≈ 130 nM). Also, in assay [1], the “Activity (%) po” value was found to be 94%, the “Activity (%) sc” value worked out at 79%, the “Activity (%) SSVpo” value was found to be 97% and the “Survival (days) po” value is listed as 8.7 days. For the same molecule, in assay [1], the “Survival (days) sc” value was 6.7 days and the “Survival (days) SSVpo” value is on record as 7.0 days. Also, in assay [2], the “% reduction of schistosomule growth at day 21 after per os application of 200 mg/kg, FWR (%)” value stood at 87% and the “% reduction of schistosomule growth at day 21 after per os application of 200 mg/kg, TWR (%)” value came to 82%. Further, in assay [3] (single 200 mg/kg per os), the “% reduction of adult worms growth at day 49 after per os application of 200 mg/kg, TWR (%)” value came out at 24% and the “adult worms at day 49, per os 200 mg/kg, DEAD WORM (%)” value came to 29%. Further, in assay [3], the “% reduction of adult worms growth at day 49 after per os application of 400 mg/kg, TWR (%)” value came to 0% and the “adult worms at day 49, per os 400 mg/kg, DEAD WORM (%)” value is 17%. For the same molecule, in assay [3] (single 600 mg/kg per os), the “% reduction of adult worms growth at day 49 after per os application of 600 mg/kg, TWR (%)” value amounted to 0% and the “adult worms at day 49, per os 600 mg/kg, DEAD WORM (%)” value amounted to 14%. In assay [4], this molecule returned an ED90 of 9.1 mg/kg and an ED99 of 17 mg/kg.
The ED50 is the dose that gives a 50% effect, or the effect in half of the subjects. Read a high ED50 as a need for a large dose. Consider `c1ccc(C[C@H]2CC[C@]3(CC2)OOC2(O3)C3CC4CC(C3)CC2C4)cc1` (some centres unmarked) [OZ156], for which, in assay [5], the “IC50 (ng/ml) K1” value is 2.1/2.1 ng/ml. For the same molecule, the “IC50 (ng/ml) NF54” value in assay [6] is listed as 2.1/2.1 ng/ml. Moreover, in assay [1], the “Activity (%) po” value came to 99.98%, the “Activity (%) sc” value amounted to 99.98%, the “Activity (%) SSVpo” value was 98.8% and the “Survival (days) po” value was 17.0 days. Further, in assay [1], the “Survival (days) sc” value was 19.7 days and the “Survival (days) SSVpo” value is 10.3 days. Also, in assay [2], the “% reduction of schistosomule growth at day 21 after per os application of 200 mg/kg, FWR (%)” value is 72% and the “% reduction of schistosomule growth at day 21 after per os application of 200 mg/kg, TWR (%)” value was 75%. Also, in assay [3], the “% reduction of adult worms growth at day 49 after per os application of 400 mg/kg, TWR (%)” value stood at 0% and the “adult worms at day 49, per os 400 mg/kg, DEAD WORM (%)” value turned out to be 6%. Moreover, in assay [4], the median effective dose (ED50) was found to be 1.3 mg/kg, the ED90 was 2.6 mg/kg and the ED99 came to 4.7 mg/kg.
With `c1cn(C[C@H]2CC[C@]3(CC2)OOC2(O3)C3CC4CC(C3)CC2C4)cn1` (some centres unmarked) [OZ179], the “IC50 (ng/ml) K1” value in assay [5] was found to be 1.3 ng/mL (≈ 3.77 nM). Also, in assay [6], the “IC50 (ng/ml) NF54” value came to 1.1 ng/mL (≈ 3.19 nM). In assay [1] (10 mg/kg), the “Activity (%) po” value was determined as 99.91%, the “Activity (%) sc” value came to 99.91%, the “Survival (days) po” value was 11.3 days and the “Survival (days) sc” value is recorded as 11.3 days. In assay [1], the “Activity (%) SSVpo” value was 99.78% and the “Survival (days) SSVpo” value is recorded as 10.3 days. In assay [4], this molecule had an ED50 of 1.4 mg/kg, an ED90 of 3.3 mg/kg and an ED99 of 6.6 mg/kg.
Consider `CC(C)(O)C[C@H]1CC[C@]2(CC1)OOC1(O2)C2CC3CC(C2)CC1C3` (some centres unmarked) [OZ205], for which the “IC50 (ng/ml) K1” value in assay [5] came to 1.5 ng/mL (≈ 4.46 nM). In assay [6], the “IC50 (ng/ml) NF54” value was 2.0 ng/mL (≈ 5.94 nM). Further, in assay [1], the “Activity (%) po” value was determined as 99.96%, the “Activity (%) sc” value worked out at 99.96%, the “Activity (%) SSVpo” value turned out to be 99.94% and the “Survival (days) po” value was determined as 10.0 days. In addition, in assay [1], the “Survival (days) sc” value was determined as 9.7 days and the “Survival (days) SSVpo” value is 8.7 days. Moreover, in assay [2], the “% reduction of schistosomule growth at day 21 after per os application of 200 mg/kg, FWR (%)” value came out at 83% and the “% reduction of schistosomule growth at day 21 after per os application of 200 mg/kg, TWR (%)” value came out at 84%. For the same molecule, in assay [3], the “% reduction of adult worms growth at day 49 after per os application of 400 mg/kg, TWR (%)” value turned out to be 0% and the “adult worms at day 49, per os 400 mg/kg, DEAD WORM (%)” value is reported as 12%. In assay [4], the 50% effective dose (ED50) is on record as 1.6 mg/kg, the ED90 was 3.3 mg/kg and the ED99 turned out to be 6.0 mg/kg.
For `c1cn(CC[C@H]2CC[C@]3(CC2)OOC2(O3)C3CC4CC(C3)CC2C4)cn1` (some centres unmarked) [OZ219], the “IC50 (ng/ml) K1” value in assay [5] amounted to 0.85 ng/mL (≈ 2.37 nM). The “IC50 (ng/ml) NF54” value in assay [6] was 1.6 ng/mL (≈ 4.46 nM). For the same molecule, in assay [1], the “Activity (%) po” value was determined as 99.89%, the “Activity (%) sc” value amounted to 99.91%, the “Activity (%) SSVpo” value was 99.82% and the “Survival (days) po” value is recorded as 8.7 days. Moreover, in assay [1], the “Survival (days) sc” value was 9.3 days and the “Survival (days) SSVpo” value is given as 8.0 days. In assay [4], this molecule had a 50% effective dose (ED50) of 1.6 mg/kg, an ED90 of 3.0 mg/kg and an ED99 of 5.2 mg/kg.
In the case of `CN1CCN(C(=O)C[C@H]2CC[C@]3(CC2)OOC2(O3)C3CC4CC(C3)CC2C4)CC1` (some centres unmarked) [OZ227], the “IC50 (ng/ml) K1” value in assay [5] was 0.20/0.20 ng/ml. The “IC50 (ng/ml) NF54” value in assay [6] is listed as 0.20/0.20 ng/ml. Moreover, in assay [1], the “Activity (%) po” value is given as 99.68%, the “Activity (%) sc” value turned out to be 99.84%, the “Activity (%) SSVpo” value is on record as 99.90% and the “Survival (days) po” value is given as 8.3 days. For the same molecule, in assay [1], the “Survival (days) sc” value is recorded as 10.7 days and the “Survival (days) SSVpo” value came out at 9.3 days. In assay [4], the ED50 turned out to be 2.3 mg/kg, the ED90 is given as 4.0 mg/kg and the ED99 stood at 6.2 mg/kg.
For `c1ncn(C[C@H]2CC[C@]3(CC2)OOC2(O3)C3CC4CC(C3)CC2C4)n1` (some centres unmarked) [OZ235], the “IC50 (ng/ml) K1” value in assay [5] turned out to be 1.0 ng/mL (≈ 2.89 nM). In addition, in assay [6], the “IC50 (ng/ml) NF54” value worked out at 2.0 ng/mL (≈ 5.79 nM). In assay [1], the “Activity (%) po” value is on record as 99.92%, the “Activity (%) sc” value is recorded as 97%, the “Activity (%) SSVpo” value was determined as 99.97% and the “Survival (days) po” value was determined as 8.7 days. In assay [1], the “Survival (days) sc” value came to 8.0 days and the “Survival (days) SSVpo” value is on record as 9.0 days. Also, in assay [4], the ED50 is 4.0 mg/kg, the ED90 came to 7.1 mg/kg and the ED99 was 11 mg/kg.
